Results reported in patent EP1661955A1, “Antifouling coating comprising a polymer with functional groups bonded to an enzyme” (Nederlandse Organisatie voor …, priority 2004, dated 2006).
Values after ≈ are worked out from the molar mass of the structure shown.

Tested on: cyprid larvae of the barnacle species Balanus amphitrite
Assay: Barnacle settlement inhibition test, enzymes in solution
Assay type: in vivo
Conditions: reference compound in solution; concentration at which 50 % settlement reduction takes place
From the text: The barnacle settlement test determines settlement inhibitory activity of biocidal compounds. For this test mass reared cyprid larvae of the barnacle species Balanus amphitrite are used. Adult barnacles, kept under standardised conditions, are forced to produce naupliar larvae that are collected and grown up separately at constant temperature and a fixed light:dark period. When larvae reach the cyprid stage, which is the settling phase, they are collected and set apart prior to testing.
Test compounds are usually tested in a range of concentrations prepared directly in seawater or after pre-dissolution in a suitable solvent. Settlement tests are carried out in polystyrene multiwell plates. Wells contain either 1 mL of a test solution or 1 mL of a control solution. Plates are incubated for 24 - 48 hours under constant temperature and light:dark regime to allow settlement and metamorphosis of the cyprids.
After incubation the wells are screened and numbers of settled and non-settled larvae counted using a stereo microscope. Numbers of settled larvae are expressed as a percentage of total larvae in the well. Average % settlement is calculated in four replicates. Subsequently a settlement response curve in relation to substance concentration is drawn and an EC50 value, concentration at which 50 % settlement reduction takes place, calculated. […]

With `CCCCCCCCn1sc(Cl)c(Cl)c1=O` [Seanine 211] the EC50 value was 0.4 µg/mL (≈ 1.42 µM).
